Measured values from patent publication US20100159449A1, “Continuous Assay Method for Measuring Receptor- and Ion Channel-Mediated Calcium Response and Subsequent Gene Expression” (NOACELL SCIENCE CO., LTD., priority 2006, published 2010).
Structures can show the parent of a compound that is named as a salt. Each block holds one compound with its values, some of them ahead of it.

Assays:
purine receptors [1] = assay: aequorin-mediated calcium response (flash luminescence) in transfected CHO cells; format: cell-based; settings: ATP 10^-3 to 10^-9 M, 30 seconds after addition, EnduRen or wildtype coelenterazine as substrate (FIG. 9)
Procedure: (§1) To begin with, plasmids (pcDNA MtAEQ, pcDNA Gα16, and pGL3 CRE-Renilla) were introduced into CHO cells. […] The results are graphed in FIGS. 3 and 4.
(§2) In detail, a CHO cell line (ATCC-deposited cells) that expresses purine receptors was seeded into 10 cm^2 Petri dishes at a 1.5×10^5 cells/ml cellular concentration.
(§3) The next day, 2.2 μg Gα16 (pcDNA Gα16), 3 μg aequorin-expressing plasmids (pcDNA MtAequorin), and 3 μg cAMP-responding Renilla luciferase plasmids (pGL3 CRE-Renilla) were transfected into each Petri dish employing 18 μL of FuGENE® 6 (by Roche Diagnostics).
(§4) The following day, 400 μL of trypsin/EDTA solution was added to the Petri dishes, and the cells were dissociated and suspended in 13 mL of DMEM/F12 FCS nutrient broth. […] Thereafter culturing was continued, and the results six hours later of measuring the activity of Renilla luciferase with the ARVO were diagrammed (FIG. 4). […] It will be understood that, with no induction of cAMP-mediated Renilla luciferase occurring, the purine receptors were Gq-coupled GPCRs.
Wildtype coelenterazine and, as a stable substrate, EnduRen™ were employed as luminescent substrates for enzymes, and the continuous-measurement regimes were compared. Plasmids were introduced into CHO cells. […]

purine receptors [2] = assay: cAMP-responding (CRE) Renilla luciferase reporter assay in CHO cells expressing purine receptors; format: cell-based; settings: ATP 10^-3 to 10^-9 M, six hours later, EnduRen substrate (FIG. 4)
Procedure: as §1, §2, §3, §4

[3] = target: dopamine receptors (D2RS) (Homo sapiens, UniProt P14416); settings: D2RS-expressing CHO cells; dopamine 10^-3 to 10^-9 M; following day forskolin added, six hours culturing (FIG. 8)
Procedure: To begin with, plasmids were introduced into dopamine-receptor (D2RS) expressing cells. Following an overnight culturing, EnduRen™ was added as a substrate, the combination was cultivated four hours, and from 10^−3 to 10^−9 M sample (dopamine) was added.
In detail, dopamine receptors (D2RS) were transfected into a CHO cell line (ATCC-deposited cells), and, in the same manner as in Embodiment 1, Gα16, aequorin-expressing plasmids, and cAMP-responding Renilla luciferase plasmids were transfected into the stably expressing cell line and the cell suspension solution was adjusted.
The following day, 10 μL of 10^−5 M forskolin was added, and culturing was continued for six hours. The results of measuring the activity of Renilla luciferase were diagrammed (FIG. 8). In FIG. 8, the vertical axis indicates the per-second luminescent intensity (count per second), and the horizontal axis, the dopamine concentration.

[4] = target: serotonin receptor (5HT2A) (Homo sapiens, UniProt P28223); assay: cAMP-responding (CRE) Renilla luciferase reporter assay in serotonin-receptor expressing CHO cells; format: cell-based; settings: 5HT2A-expressing CHO cells; serotonin 2.5x10^-6 to 2.5x10^-12 M; culturing six hours; EnduRen substrate (FIG. 6)
Sequence of serotonin receptor (5HT2A) (P28223 whole entry, species assumed): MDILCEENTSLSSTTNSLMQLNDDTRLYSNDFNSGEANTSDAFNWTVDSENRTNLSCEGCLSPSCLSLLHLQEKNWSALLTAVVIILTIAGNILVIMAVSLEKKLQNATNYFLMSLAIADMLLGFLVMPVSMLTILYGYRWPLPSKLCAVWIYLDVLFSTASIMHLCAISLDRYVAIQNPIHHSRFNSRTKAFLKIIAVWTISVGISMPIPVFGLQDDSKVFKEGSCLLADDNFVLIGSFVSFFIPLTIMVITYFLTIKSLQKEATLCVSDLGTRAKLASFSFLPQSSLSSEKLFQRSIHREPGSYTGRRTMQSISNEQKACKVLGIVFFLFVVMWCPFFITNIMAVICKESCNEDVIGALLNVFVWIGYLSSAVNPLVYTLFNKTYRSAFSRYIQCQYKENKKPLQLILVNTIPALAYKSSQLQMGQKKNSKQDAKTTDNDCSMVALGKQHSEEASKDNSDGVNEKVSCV
Procedure: To begin with, plasmids (pcDNA MtAEQ, pcDNA Gα16, and pGL3 CRE-Renilla) were introduced into serotonin-receptor (5HT2A) expressing cells. Following an overnight culturing, EnduRen™ was added as a substrate, the combination was cultivated four hours, and from 2.5×10^−6 to 2.5×10^−12 M sample (serotonin) was added. For 30 seconds directly post-addition, the aequorin-mediated luminescence was continuously measured.
In detail, a serotonin receptor (5HT2A) was transfected into a CHO cell line (ATCC-deposited cells), and, in the same manner as in Embodiment 1, Gα16, aequorin-expressing plasmids, and cAMP-responding Renilla luciferase plasmids were transfected into the stably expressing cell line and the cell suspension solution was adjusted.
As a stable substrate, 30 μm EnduRen™ was added, and after four hours' culturing, 90 μL of the cell suspension solution was added into each well of a 96-well plate into which 10 μL serotonin hydrochloride as serotonin-receptor ligands had been added at 2.5×10^−6 to 2.5×10^−12 M concentration. Results of measuring the change in luminescent intensity for 30 seconds immediately following the suspension addition, employing the ARVO luminometer by Berthold Technologies GmbH, were diagrammed (FIG. 5). In FIG. 5, the vertical axis indicates the per-second luminescent intensity (count per second), and the horizontal axis, the measuring time (seconds). […]

Sequence of dopamine receptors (D2RS) (P14416 1-414 isoform P14416-2): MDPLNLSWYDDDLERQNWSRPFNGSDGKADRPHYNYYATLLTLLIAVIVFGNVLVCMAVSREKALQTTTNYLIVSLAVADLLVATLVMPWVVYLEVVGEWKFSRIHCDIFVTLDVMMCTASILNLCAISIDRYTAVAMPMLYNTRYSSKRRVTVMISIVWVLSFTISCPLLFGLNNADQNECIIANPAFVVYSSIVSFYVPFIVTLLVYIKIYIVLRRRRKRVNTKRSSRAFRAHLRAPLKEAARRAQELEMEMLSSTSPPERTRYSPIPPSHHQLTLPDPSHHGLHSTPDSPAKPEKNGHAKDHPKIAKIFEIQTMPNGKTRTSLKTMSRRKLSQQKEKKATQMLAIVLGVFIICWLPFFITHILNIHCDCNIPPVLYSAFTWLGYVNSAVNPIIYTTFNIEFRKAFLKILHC

SMILES: Nc1ncnc2c1ncn2[C@@H]1O[C@H](COP(=O)([O-])OP(=O)([O-])OP(=O)(O)O)[C@@H](O)[C@H]1O.O.[Na+].[Na+] [ATP, adenosine 5′-triphosphate disodium hydrate]
ATP-stimulated calcium response by aequorin luminescence (purine receptors [1]): calcium response can be measured
induction of cAMP-mediated Renilla luciferase (purine receptors [2]): no induction

forskolin-stimulated activity of Renilla luciferase [3]: declined
SMILES: Cl.NCCc1ccc(O)c(O)c1 [dopamine, dopamine hydrochloride]

SMILES: NCCc1c[nH]c2ccc(O)cc12 [serotonin, serotonin hydrochloride]
cAMP-mediated increase in (induction of) Renilla luciferase [4]: increase in (induction of) Renilla luciferase was confirmed
